According to paper PMC12390684 (Viruses, 2025):
Square brackets hold non-standard residues; d marks the D form. Peptide text beside a SMILES is read from it. dNMeL = CN[C@H](CC(C)C)C(=O)O; Hiv = CC(C)[C@H](O)C(=O)O

target: IN-GCN2 interaction (6xHis-IN / GST-GCN2) (UniProt P04585+Q9P2K8); test: biochemical; type: binding, HIV-1 IN; human GCN2; settings: at 33 µM, compared to DMSO
Sequence (Q9P2K8 192-1024, other chains not shown): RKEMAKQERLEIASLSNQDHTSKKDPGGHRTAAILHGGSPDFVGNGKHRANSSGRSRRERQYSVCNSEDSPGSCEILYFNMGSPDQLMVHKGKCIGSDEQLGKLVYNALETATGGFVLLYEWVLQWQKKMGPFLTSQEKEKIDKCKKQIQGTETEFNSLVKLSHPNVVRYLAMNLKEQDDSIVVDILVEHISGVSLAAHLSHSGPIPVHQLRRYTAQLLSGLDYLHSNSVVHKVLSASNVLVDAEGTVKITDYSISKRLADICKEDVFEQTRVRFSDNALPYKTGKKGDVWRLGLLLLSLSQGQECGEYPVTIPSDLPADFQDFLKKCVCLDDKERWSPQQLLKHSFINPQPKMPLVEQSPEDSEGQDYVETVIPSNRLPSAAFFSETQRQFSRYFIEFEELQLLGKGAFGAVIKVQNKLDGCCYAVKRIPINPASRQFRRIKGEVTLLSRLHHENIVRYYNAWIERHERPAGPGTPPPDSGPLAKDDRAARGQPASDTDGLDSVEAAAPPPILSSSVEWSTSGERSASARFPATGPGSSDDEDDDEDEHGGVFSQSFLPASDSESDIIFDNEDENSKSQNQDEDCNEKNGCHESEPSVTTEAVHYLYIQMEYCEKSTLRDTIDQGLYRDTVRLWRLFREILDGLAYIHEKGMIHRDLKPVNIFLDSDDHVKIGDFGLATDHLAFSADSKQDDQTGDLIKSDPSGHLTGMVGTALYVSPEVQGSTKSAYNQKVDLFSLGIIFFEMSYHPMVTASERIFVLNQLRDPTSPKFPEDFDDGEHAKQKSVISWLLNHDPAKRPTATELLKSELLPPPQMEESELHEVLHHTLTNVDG

Compound | AlphaLISA signal in dose-response [%]
COc1ccc2c(=O)oc3c(OC)cc(CCN(C)C)c4c(=O)oc1c2c34 [NSC76022] | 120

same assay, conditions: at 100 µM, compared to DMSO

Compound | AlphaLISA signal in dose-response [%]
COc1ccc2c(=O)oc3c(OC)cc(CCN(C)C)c4c(=O)oc1c2c34 [NSC76022] | 200

same assay, conditions: screen, single dose 100 µM, single replicate; residual AlphaLISA signal normalized to DMSO control

Compound | IN-GCN2 interaction (%)
COc1cc2c(cc1OC)C13CCN4CC5CCOC6CC(=O)N2C1C6C5CC43 (stereo not shown) [NSC72917] | 90.85
N=C(N)CCNC(=O)C1CCC(N)=N1 (stereo not shown) [NSC72942] | 100.21
COc1cc(OC)c(C(=O)/C=C/c2ccc(OC)c(OC)c2)c(OC)c1 [NSC75527] | 89.20
CC[C@@H](O)C[C@H]1CCC[C@@]2(C[C@@H]3OC(=O)/C=C/[C@@](C)(O)[C@@H](O)[C@H](C)[C@@H](O)[C@H](OC4CCC(N(C)C)C(C)O4)[C@@H](O)[C@](C)(O)CCCCC/C=C/[C@@H]4CC(C)(C)O[C@@]4(O)C[C@H](O2)[C@H]3C)O1 (stereo partly shown) [NSC76627] | 52.50
CC1=C[C@H](O)[C@@H](O)[C@]2(C)[C@H]3[C@@]4(O)OC[C@@]35[C@@H](C[C@@H]12)OC(=O)C[C@H]5[C@@H](C)[C@H]4O [NSC79404] | 87.44
COc1ccc2c3c([nH]c2c1)[C@H]1C[C@H]2[C@H](C[C@@H](O)[C@H](OC)[C@H]2C(=O)O)CN1CC3 [NSC81463] | 97.85
CC1(C)Oc2cc3oc(=O)ccc3c3c2C2C1CCC(C)(O3)C2O (stereo not shown) [NSC83433] | 78.75
COc1c2c(c3c(c1CCC(=O)O)OC(C)(C)C=C3)OC(C)(C)C=C2 [NSC83436] | 100.62
C[C@]12CCC(=O)[C@](C)(CO)[C@@H]1CC[C@@]13C[C@@H](CC[C@@H]12)[C@@H](C(=O)O)C3 [NSC83439] | 107.59
C=C1C(=O)O[C@@H]2[C@H]1CC[C@H](C)[C@@H]1C=CC(=O)[C@@]21C [NSC85235] | 40.36
C=C1C(=O)O[C@@H]2C[C@@H](C)[C@@H]3C=CC(=O)[C@@]3(C)[C@@H](O)[C@H]12 [NSC85236] | 117.15
C=C1C(=O)O[C@@H]2[C@H]1CC[C@H](C)[C@]1(O)C=CC(=O)[C@@]21C [NSC85239] | 120.23
CN(N=O)C(=O)N[C@@H](C=O)[C@@H](O)[C@H](O)[C@H](O)CO [NSC85998] | 75.18
COc1cc(C)c2c(c1C=O)Oc1c(c(C)c(O)c3c1C(O)OC3=O)OC2=O (stereo not shown) [NSC87511] | 159.91
CC1=C(O)C(=O)C(C2=C(O)C(=O)C(C)=C(O)C2=O)=C(O)C1=O [NSC88466] | 52.93
C[C@H]1CCC/C=C/[C@@H]2C[C@H](O)C[C@H]2[C@H](O)/C=C/C(=O)O1 [NSC89671] | 129.13
CC(C)[C@@](O)(C(=O)OCC1=CCN2CC[C@H](O)[C@@H]12)[C@H](C)O [NSC89937] | 65.06
CC[C@]12CN3CCc4c([nH]c5ccccc45)[C@@](C(=O)OC)(c4cc5c(cc4OC)N(C)[C@H]4[C@@](O)(C(=O)OC)[C@H](OC(C)=O)[C@]6(CC)C=CCN7CC[C@]54[C@@H]76)C[C@@H](C3)[C@H]1O2 [NSC90636] | 49.62
O=C1C=C([C@@H]2O[C@H](CO)[C@@H](O)[C@H]2O)C(=O)N1 [NSC93047] | 117.57
C[C@]12CC[C@H]3[C@@H](CC[C@]4(O)C[C@@H](O)CC[C@]34/C=N/O)[C@@]1(O)CC[C@@H]2C1=COC(=O)C1 [NSC93373] | 116.21
COc1cc2c3cc1Oc1c(O)c(OC)cc4c1[C@H](Cc1ccc(cc1)Oc1cc(ccc1O)C[C@H]3N(C)CC2)N(C)CC4 [NSC93674] | 63.45
C[C@H]1O[C@@H](O[C@H]2[C@@H](O)C[C@H](O[C@H]3[C@@H](O)C[C@H](O[C@H]4CC[C@@]5(C)[C@H](CC[C@@H]6[C@@H]5CC[C@]5(C)[C@@H](C7=CC(=O)OC7)[C@@H](O)C[C@]65O)C4)O[C@@H]3C)O[C@@H]2C)C[C@H](O)[C@@H]1O [NSC95099] | 127.68
CC(=O)OC1CCC2(C)C(=CCC3C2CCC2(C)C3CC3OC4(CCC(C)CN4)C(C)C32)C1 (stereo not shown) [NSC96021] | 132.69
Cc1cc2nc3[nH]c(=O)[nH]c(=O)c3nc2cc1C [NSC96911] | 89.81
O=C1CC=C2C3CC4N(CCC45c4ccccc4N1C25)C/C3=C\CO (stereo not shown) [NSC99791] | 109.54
O=C1C[C@@H]2OCC=C3CN4CC[C@]56c7ccccc7N1[C@H]5[C@H]2[C@H]3C[C@]46O [NSC99792] | 109.08
COc1cc2c(cc1OC)[C@@]13CCN4CC5=CCO[C@H]6CC(=O)N2[C@H]1[C@H]6[C@H]5C[C@]43O [NSC99794] | 103.59

Compound | IN-GCN2 interaction (%)
Oc1ccc(Cc2nccc3cc(O)c(O)cc23)cc1O [NSC99799] | 58.53
C[C@H]1O[C@H](OC2[C@@H](O)[C@@H](O)C(O)[C@H](O)[C@H]2O)[C@@H](N)C[C@@H]1N=C(N)C(=O)O (stereo partly shown) [NSC100858] | 98.15
Nc1ncn([C@@H]2O[C@H](CO)[C@@H](O)[C@H]2O)c(=O)n1 [NSC102816] | 106.78
C=C1C(=O)O[C@H]2[C@H]1[C@H](OC(=O)/C(C)=C\C)C[C@]1(CO1)[C@@H]1[C@H](OC(C)=O)C=C(C)[C@]21O [NSC104943] | 118.84
CCCCC[C@@H](O)[C@H]1C(=O)O[C@H](C)[C@@H](O)/C=C/C=C/C=C/C=C/C=C(\C)[C@@H](O)[C@H](O)[C@H](O)C[C@H](O)C[C@H](O)C[C@H](O)C[C@H](O)C[C@@H]1O [NSC105388] | 86.99
NC(=S)c1cn(C2OC(CO)C(O)C2O)c2ncnc(N)c12 (stereo not shown) [NSC105827] | 100.77
O=c1[nH]cnc2c([C@@H]3O[C@H](CO)[C@@H](O)[C@H]3O)[nH]nc12 [NSC106486] | 77.11
COc1ccc(-c2oc3cc(O)c(OC)c(O)c3c(=O)c2OC)cc1O [NSC106969] | 98.61
COC(=O)c1ccc(O)c2nc3c(C=O)c(O)cc(O)c3nc12 [NSC106995] | 28.53
CC(CCC/C=C/CCCN(C)C(=N)N)CC(C)C1OC(=O)C(C)C(O)/C=C/C(C)C(O)C(C)C(O)C(C)C(O)CCCC(O)CC2(O)OC(CC(OC(=O)CC(=O)O)CC(O)CC(O)C(C)C(O)/C=C/C=C/C1C)CC(O)C2O (stereo not shown) [NSC107041] | 57.24
Cc1ccc(S(=O)(=O)NNC(=O)c2cc(C)c(C)cc2N)cc1 [NSC107453] | 88.25
CCC1CN(C)C2Cc3c([nH]c4ccccc34)C(=O)CC1C2C(=O)OC (stereo not shown) [NSC108088] | 78.52
N=C1C=C(N)C(=O)c2[nH]c(=O)ccc21 [NSC111041] | 43.78
C[C@@H]1C[C@@H]2CCCC(O)=C2C(=O)O1 [NSC112906] | 126.27
O=C1NC(O)CCN1[C@@H]1O[C@H](CO)[C@@H](O)[C@H]1O (stereo partly shown) [NSC112907] | 123.97
CC1C(=O)OC2CCN3CC4OC4(COC(=O)C(C)(O)C1(C)O)C23 (stereo not shown) [NSC113087] | 97.53
CC(=O)O[C@@H]1C[C@H]2C(C)(C)C(=O)C=C[C@]2(C)[C@H]2CC[C@@]3(C)[C@H](c4ccoc4)OC(=O)[C@H]4O[C@]43[C@@]21C [NSC113497] | 59.74
COc1cc(/C=N\O)nc(-c2ccccn2)c1 [NSC114341] | 45.21
CC[C@H](C)c1occ2c(O)c(C(=O)O)c(=O)cc-2c1C [NSC114344] | 113.54
C/C=C/c1cc2c(c(=O)o1)C(=O)[C@@H](O)[C@H](C)O2 [NSC118343] | 125.37
Br.CN1CCc2cc3c(cc2C1)OCO3 [NSC121859] | 114.20
O=C(O)CC1OCC=C2CN3CCC45c6ccccc6NC4C1C2CC35 (stereo not shown) [NSC121860] | 104.59
COc1cc2c(cc1OC)C13CCN4CC5=CCOC(CC(=O)O)C(C5CC41)C3N2 (stereo not shown) [NSC121865] | 122.60
CC(C)[C@@H]1NC(=O)[C@H](C)OC(=O)[C@@H](C(C)C)NC(=O)[C@@H](C(C)C)OC(=O)[C@H](C(C)C)NC(=O)[C@H](C)OC(=O)[C@@H](C(C)C)NC(=O)[C@@H](C(C)C)OC(=O)[C@H](C(C)C)NC(=O)[C@H](C)OC(=O)[C@@H](C(C)C)NC(=O)[C@@H](C(C)C)OC1=O [NSC122023] | 63.87
CC(C)C[C@@H]1NC(=O)[C@H](C(C)C)NC(=O)[C@H](C(C)C)OC(=O)[C@@H](CC(C)C)N(C)C(=O)[C@@H](C(C)C)NC(=O)[C@H](C(C)C)OC1=O [NSC122224] (cyclo([Hiv]VL[Hiv][dV][dNMeL])) | 110.56
COC1=C2C[C@@H](C)C[C@H](OC)[C@H](O)[C@@H](C)/C=C(\C)[C@H](OC(N)=O)[C@@H](OC)/C=C\C=C(/C)C(=O)NC(=CC1=O)C2=O [NSC122750] | 116.21

same assay, conditions: screen, single dose 100 µM, single replicate; residual AlphaLISA signal normalized to DMSO control; listed as 94600

Compound | IN-GCN2 interaction (%)
CC[C@@]1(O)C(=O)OCc2c1cc1n(c2=O)Cc2cc3ccccc3nc2-1 [NSC94600] | 48.96

same assay, conditions: screen, single dose 100 µM, single replicate; residual AlphaLISA signal normalized to DMSO control; listed as 99843

Compound | IN-GCN2 interaction (%)
N#Cc1cn([C@@H]2O[C@H](CO)[C@@H](O)[C@H]2O)c2ncnc(N)c12 [NSC99843] | 116.98

same assay, conditions: screen, single dose 100 µM, single replicate; residual AlphaLISA signal normalized to DMSO control; listed as 100880

Compound | IN-GCN2 interaction (%)
CC[C@@]1(O)C(=O)OCc2c1cc1n(c2=O)Cc2cc3ccccc3nc2-1 [NSC100880] | 95.24
